Source: US8748117B2, “Probe for detection and quantification of nitric oxide, and method for detecting and quantifying nitric oxide using the same” (Japan Science and Technology Agency, priority 2004, dated 2014)
“Also recorded” adds a separate entry of the source.

How the values were obtained:
[1] = tested on: phosphatidyl inositol 3-kinase (PI(3)K); experiment: PI(3)K inhibitor effect on basal NO (NOA-1 emission ratio) in endothelial cells; assay type: cell-based, bovine
Protocol: The stable generation of the basal NO concentration was examined in vascular endothelial cells cultured in a serum-containing medium.
That is, the endothelial cells expressing NOA-1 was added with 100 μM LY 294002), and the CFP/YFP emission ratio was monitored for the NO concentrations in the cells.

[2] = tested on: endothelial cells from bovine pulmonary artery; experiment: NOA-1 CFP/YFP emission ratio in vascular endothelial cells; assay type: cell-based
Protocol: (§1) (1) NOA-1 was expressed in endothelial cells from bovine pulmonary artery cultured in a serum-supplemented media. […] This is based on difference of basal NO concentration between CHO-K1 cell and vascular endothelial cell. (3) Endothelial cells and CHO-K1 cells were pretreated with an inhibitor for nitric oxide synthase (NOS), 1 mM L-NAME and the CFP/YFP emission ratio of NOA-1 was observed.
(4) The response of NOA-1 for excess NOC-7 between the endothelial and CHO-K1 cells was compared.
We stimulated the endothelial and CHO-K1 cells with 10 μM NOC-7, which generates enough concentration of NO to immediately saturate the NOA-1 response. […] As a result, in endothelial cells, the obtained change in the emission ratio upon the excess NOC-7 stimulation was actually only one-third of that in CHO-K1 cells (FIG. 13B).
(§2) (6) The basal concentration of NO in each vascular endothelial cell was measured. We first inhibited endogenous eNOS with 1 mM L-NAME to remove the basal NO and cGMP generated by the basal NO. The CFP/YFP emission ratios before and after the inhibition of endogenous eNOS, respectively, represent the basal and zero concentrations of NO in each endothelial cell (FIG. 15). To quantitate the basal concentration of NO, we subsequently added various concentrations of NO to each endothelial cell, in which eNOS activity was inhibited with L-NAME. The peak response of NOA-1 was plotted at each concentration of NO. Based on the obtained dose-response of NOA-1 for various concentrations of NO, we measured 1 nM of the basal NO concentration generated in each endothelial cell.

phosphodiesterases (PDE) = experiment: Effect of PDE inhibitor on NOA-1 emission ratio in CHO-K1 cells; assay type: cell-based
Protocol: (§3) Two cDNAs were introduced into CHO K1 cells having little amount of endogenous sGC thereby coexpressing both sGCα-CGY and sGCβ-CGY in the cells.
The latter recovery of the decreased emission ratio disappeared when the cells were pretreated with an inhibitor of phosphodiesterases (PDE) that hydrolyses cGMP, zaprinast (FIG. 3-c).
as §2

phosphodiesterases = experiment: PDE inhibitor effect on NOA-1 emission ratio in endothelial cells; assay type: cell-based, bovine; conditions: 200 μM zaprinast; endothelial cells expressing NOA-1
[3] = tested on: CHO-K1 cells expressed with NOA-1; experiment: Selectivity of NOA-1 FRET response (CO, natriuretic peptide, cAMP generation); assay type: cell-based; conditions: for CFP/YFP emission ratio of NOA-1: excess concentration, several cultured cell types including CHO-K1 cells
Source text: As to the selectivity of NOA-1, the FRET response of NOA-1 for carbon monoxide (CO) was examined.
CO is a sGC activator but has a lower affinity with sGC than NO. In addition, the CO-bound sGC is known to have much lower cyclase activity than NO-bound sGC because of each different coordination to the heme iron. Physiologically generated CO thus appears not to affect the response of NOA-1.
Effect of natriuretic peptide stimulation or cAMP generation on the FRET response of NOA-1 was examined.

[4] = tested on: CHO-K1 cells expressing NOA-1; experiment: CFP/YFP emission ratio of NOA-1 in CHO-K1 cells upon NOC-7 / NO stimulation; assay type: cell-based
Protocol: cDNAs respectively expressing the hybrid proteins were constructed. The hybrid proteins respectively comprise cGMP-visualization probe (hereinafter described as CGY) connected with C-terminus of sGCα or sGCβ through the linker of SEC ID NO.1 (GGEQKLISEEDLLESR). The CYG was prepared according to the method in Patent documents 1 and 2. The heterodimmer of the hybrid proteins was named as “NOA-1” (fluorescent indicator for NO with a signal amplifier) (FIGS. 2A and B). At N-terminus of NOA-1, FLAG tag of SEC ID NO.2 (MDYKDDDDK) may be attached.
as §3
In the same manner as in Example 1, both sGCα-CGY and sGCβ-CGY were coexpressed in CHO-K1 cells.
In the same manner as in Example 1, the CHO-K1 cells coexpressed with both sGCα and sGCβ were stimulated with various amount of NOC-7 to measure the changes of CFP/YFP emission ratio dependent to NO concentrations (FIG. 6).
In the same manner as in Example 1, the CHO-K1 cells expressing NOA-1 were stimulated with various amount of NOC-7 to measure the changes of CFP/YFP emission ratio by NO and 8-Br-cGMP stimulations (FIGS. 7A and 7B).
The NO-dependent FRET response of NOA-1 was confirmed by using NO solutions prepared by bubbling NO gas. […] Importantly, NOA-1 senses not only an increase in the NO concentration but also its removal by oxidation and/or volatilization. This NO-dependent reversible response of NOA-1 is caused by the reversible binding of NO to the heme group in NOA-1 and endogenous phosphodiesterases that immediately hydrolyze the generated cGMP molecules after the removal of NO.

[5] = tested on: nitric oxide synthase (NOS); experiment: NOS inhibitor effect on NOA-1 emission ratio in CHO-K1 cells; assay type: cell-based; conditions: 1 mM L-NAME
Protocol: as §1

[6] = molecular target: T1, nitric oxide synthase (NOS) (Bos taurus, UniProt P29473); experiment: NOS inhibitor effect on NOA-1 emission ratio in endothelial cells; assay type: cell-based, bovine; conditions: 1 mM L-NAME
T1 construct: endogenous in cells; host or cells: bovine pulmonary artery endothelial cells
T1 sequence (P29473 2-1205 limits assumed): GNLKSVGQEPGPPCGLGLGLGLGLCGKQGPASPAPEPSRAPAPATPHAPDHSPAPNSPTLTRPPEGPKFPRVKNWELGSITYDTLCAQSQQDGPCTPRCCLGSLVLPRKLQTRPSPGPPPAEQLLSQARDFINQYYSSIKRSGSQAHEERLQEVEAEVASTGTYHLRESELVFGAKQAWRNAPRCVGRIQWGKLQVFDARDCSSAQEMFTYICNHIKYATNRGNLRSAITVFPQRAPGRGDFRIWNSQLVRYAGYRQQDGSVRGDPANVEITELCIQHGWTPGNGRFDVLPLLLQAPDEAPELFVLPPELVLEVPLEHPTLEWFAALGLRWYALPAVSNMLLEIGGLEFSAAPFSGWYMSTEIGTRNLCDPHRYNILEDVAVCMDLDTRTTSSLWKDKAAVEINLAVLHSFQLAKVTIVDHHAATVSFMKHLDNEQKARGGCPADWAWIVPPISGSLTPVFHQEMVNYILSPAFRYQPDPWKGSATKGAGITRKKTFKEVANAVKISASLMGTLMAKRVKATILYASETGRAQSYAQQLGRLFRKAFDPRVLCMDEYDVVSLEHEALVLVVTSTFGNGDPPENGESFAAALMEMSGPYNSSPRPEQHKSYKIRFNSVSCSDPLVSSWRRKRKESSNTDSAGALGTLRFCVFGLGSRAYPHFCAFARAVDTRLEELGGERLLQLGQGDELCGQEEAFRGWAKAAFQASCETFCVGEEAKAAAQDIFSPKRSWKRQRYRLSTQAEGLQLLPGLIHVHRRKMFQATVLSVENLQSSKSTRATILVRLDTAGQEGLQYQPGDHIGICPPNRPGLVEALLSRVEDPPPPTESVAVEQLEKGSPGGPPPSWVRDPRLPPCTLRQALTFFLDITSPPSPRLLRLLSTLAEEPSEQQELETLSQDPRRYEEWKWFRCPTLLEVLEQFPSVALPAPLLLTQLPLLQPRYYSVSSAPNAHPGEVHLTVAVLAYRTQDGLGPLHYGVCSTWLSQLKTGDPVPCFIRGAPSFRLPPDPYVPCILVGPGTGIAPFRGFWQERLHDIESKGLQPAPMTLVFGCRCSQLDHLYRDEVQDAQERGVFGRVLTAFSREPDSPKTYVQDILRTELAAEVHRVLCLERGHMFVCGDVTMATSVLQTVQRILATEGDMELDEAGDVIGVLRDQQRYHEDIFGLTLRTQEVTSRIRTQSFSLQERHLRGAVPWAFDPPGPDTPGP
Protocol: as §1

[7] = tested on: CHO-K1 cells expressed with sGCα-CGY or sGCβ-CGY; experiment: CFP/YFP emission ratio in CHO-K1 cells expressing sGCα-CGY or sGCβ-CGY alone; assay type: cell-based; conditions: subsequent addition of 2 mM 8-Br-cGMP after 50 nM NOC-7
sGC = experiment: Block of the NOC-7 response of NOA-1 by sGC inhibitor pretreatment in CHO-K1 cells; assay type: cell-based; conditions: cells pretreated with NS 2028 (100 μM, FIG. 3-b)
Source text: as §3

Molecule: O=c1cc(N2CCOCC2)oc2c(-c3ccccc3)cccc12 [LY 294002, 2-(4-morpholinyl)-8-phenyl-1(4H)-benzopyran-4-one]
- time to reach plateau of the emission ratio ([1]; 100 μM LY 294002): ≤ 25 min
- emission ratio ([1]; 100 μM LY 294002, endothelial cells expressing NOA-1): significantly increased
- effect on basal NO ([1]; endothelial cells, serum-containing medium): removed the basal NO concentration; also recorded: inhibitory effect on basal NO generation

Molecule: insulin: stimulation activates the PI(3)K-Akt pathway
- NO concentration in the endothelial cells ([2]; insulin stimulation): further increases the NO concentration

Molecule: CCCOc1ccccc1-c1nc2nn[nH]c2c(=O)[nH]1 [zaprinast]
- latter recovery of the decreased emission ratio after 5 nM NOC-7 (phosphodiesterases (PDE); cells pretreated with zaprinast (200 μM, FIG. 3-c)): disappeared
- emission ratio (phosphodiesterases (PDE); treatment with zaprinast, NOA-1 in CHO-K1): no significant change
- CFP/YFP emission ratio (phosphodiesterases): gradually decreased and reached the saturation of NOA-1 response

Molecule: CC(C)NCC(O)c1ccc(O)c(O)c1 (stereo not drawn) [isoproterenol]
- CFP/YFP emission ratio of NOA-1 [3]: no significant change

Molecule: CNCCCNN(N=O)C(C)CO (stereo not drawn) [NOC-7, 3-(2-hydroxy-1-methylethyl-2-nitrosohydrazino)-N-methyl-1-propanamine]
- CFP/YFP emission ratio ([4]; 1 nM or 5 nM NOC-7): dose-dependent transient response; also recorded: NO-dependent transient change
- CFP/YFP emission ratio ([4]; 10 nM NOC-7): reaches a plateau and then slowly recovered to the initial level; also recorded: quick decrease
- CFP/YFP emission ratio ([4]; 50 nM or 100 nM NOC-7): did not show no recovery to the initial level even after 20 minutes
- CFP/YFP emission ratio ([4]; 100 nM NOC-7, after reaching the plateau): did not subsequently show significant recovery for at least 10 min
- CFP/YFP emission ratio response on repeated stimulation ([4]; second 5 nM NOC-7 stimulation after recovery to the initial value): same transient response
- CFP/YFP emission ratio ([4]; stimulated with 5 nM NOC-7, CHO-K1 coexpressing sGCα-CGY and sGCβ-CGY): immediately decreased but gradually recovered up to the initial level
- change in the emission ratio upon excess NOC-7 in endothelial cells relative to CHO-K1 cells ([2]; 10 μM NOC-7): one-third
- emission ratios ([2]; 10 μM NOC-7, endothelial and CHO-K1 cells): immediately decreased

Molecule: COC(=O)[C@@H](N)CCCNC(=N)N[N+](=O)[O-] [L-NAME]
- CFP/YFP emission ratio of NOA-1 [5]: no significant change
- CFP/YFP emission ratio of NOA-1 [6]: gradually increased

Molecule: [C-]#[O+] [CO, carbon monoxide]
- response of NOA-1 compared with that for 5 nM NO ([3]; 100 μM CO): transient but much smaller response
- CFP/YFP emission ratio ([3]; CO up to 10 μM): no significant change

Molecule: Nc1nc2c(nc(Br)n2[C@@H]2O[C@@H]3COP(=O)(O)O[C@H]3[C@H]2O)c(=O)[nH]1 [8-Br-cGMP]
- CFP/YFP emission ratio [7]: quick decrease
- plateau response of CFP/YFP emission ratio ([4]; addition of 2 mM 8-Br-cGMP after 100 nM NOC-7): did not further decrease

Molecule: CC[C@H](C)[C@@H]1NC(=O)[C@H](CCCNC(=N)N)NC(=O)[C@H](CC(=O)O)NC(=O)[C@H](CCSC)NC(=O)[C@H](CCCNC(=N)N)NC(=O)CNC(=O)CNC(=O)[C@H](Cc2ccccc2)NC(=O)[C@@H](NC(=O)[C@H](CO)NC(=O)[C@H](CO)NC(=O)[C@H](CCCNC(=N)N)NC(=O)[C@H](CCCNC(=N)N)NC(=O)[C@H](CC(C)C)NC(=O)[C@@H](N)CO)CSSC[C@@H](C(=O)N[C@@H](CC(N)=O)C(=O)N[C@@H](CO)C(=O)N[C@@H](Cc2ccccc2)C(=O)N[C@@H](CCCNC(=N)N)C(=O)N[C@@H](Cc2ccc(O)cc2)C(=O)O)NC(=O)CNC(=O)[C@H](CC(C)C)NC(=O)CNC(=O)[C@H](CO)NC(=O)[C@H](CCC(N)=O)NC(=O)[C@H](C)NC(=O)CNC1=O [atrial natriuretic peptide]
- CFP/YFP emission ratio of NOA-1 [3]: no significant change

Molecule: O=c1onc2n1-c1cc(Br)ccc1OC2 [NS 2028]
- transient change in the emission ratio by 5 nM NOC-7 (sGC): completely blocked
